Assay results reported in PubChem BioAssay AID1328 (NMMLSC, 2008).
Active and inactive are the calls of the source. No rule for the calls is given here.

Biological target: Apoptosis regulator Bcl-2 (Homo sapiens) (UniProt P10415)
Assay: Bim-Bcl-2 binding modulators, biochemical, multiplexed, high-throughput, human Bcl-2 (AID 1328)
Conditions: Bead-based flow cytometry, fluorescent Bim peptide-Bcl-2 binding

Apoptosis regulator Bcl-2 (Homo sapiens), sequence (P10415 whole entry, looked up): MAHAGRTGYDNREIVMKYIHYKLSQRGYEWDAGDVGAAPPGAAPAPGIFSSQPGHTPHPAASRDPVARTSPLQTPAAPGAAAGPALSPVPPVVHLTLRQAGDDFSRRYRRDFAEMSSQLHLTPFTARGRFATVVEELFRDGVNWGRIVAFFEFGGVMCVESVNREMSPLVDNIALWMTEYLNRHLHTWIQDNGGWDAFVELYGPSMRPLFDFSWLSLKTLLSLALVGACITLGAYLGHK

EC50	Structure (SMILES)
inactive	O=[N+]([O-])c1ccc(N/N=C/c2ccc(O)c(O)c2O)c(S(=O)(=O)N2CCOCC2)c1
inactive	CCC(=O)N(CC)C1=C(O)c2ccccc2C(=O)C1=O
inactive	COc1cc(/C=N/Nc2nn3cnnc3c3ccccc23)ccc1O
inactive	CN(C)[C@@H]1C(=O)C(C(=O)NCN2CCCC2)=C(O)[C@@]2(O)C(=O)C3=C(O)c4c(O)cccc4[C@@](C)(O)C3CC12 (stereo not given in full)
inactive	Clc1ccc2c(N/N=C/c3ccccc3Br)ccnc2c1
